ChEMBL document CHEMBL1134160 (Bioorg Med Chem Lett, 2001)
pEC50, pKi: −log10 of the molar value.

Legend:
[1] = target: Serotonin 3 (5-HT3) receptor; experiment: In vitro Binding affinity towards 5-hydroxytryptamine 3 receptor was determined; format: protein-complex assay
[2] = target: T1, Acetylcholine receptor; alpha1/beta1/delta/gamma (Homo sapiens, UniProt P02708+P07510+P11230+Q07001); experiment: In vitro Binding affinity towards alpha-1-beta-1-gamma delta nAChR was determined
[3] = target: Neuronal acetylcholine receptor subunit alpha-7 (Mus musculus, UniProt P49582); experiment: In vitro Binding affinity towards alpha-7 nAChR was determined
Sequence of Neuronal acetylcholine receptor subunit alpha-7 (Mus musculus, UniProt P49582) (P49582 whole entry): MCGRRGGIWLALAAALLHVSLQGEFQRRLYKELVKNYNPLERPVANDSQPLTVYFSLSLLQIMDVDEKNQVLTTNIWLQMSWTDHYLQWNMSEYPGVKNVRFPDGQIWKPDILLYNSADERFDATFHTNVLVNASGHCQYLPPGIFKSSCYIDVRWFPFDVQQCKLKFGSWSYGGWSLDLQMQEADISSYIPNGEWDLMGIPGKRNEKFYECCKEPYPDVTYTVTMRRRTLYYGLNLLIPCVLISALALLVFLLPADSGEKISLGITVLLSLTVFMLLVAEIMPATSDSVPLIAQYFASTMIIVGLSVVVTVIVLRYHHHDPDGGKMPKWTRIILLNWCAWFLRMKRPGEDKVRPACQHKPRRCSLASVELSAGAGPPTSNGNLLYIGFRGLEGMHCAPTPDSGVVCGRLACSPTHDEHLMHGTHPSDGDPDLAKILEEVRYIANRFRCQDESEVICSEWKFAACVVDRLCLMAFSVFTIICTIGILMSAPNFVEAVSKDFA

[4] = target: Neuronal acetylcholine receptor subunit alpha-7 (Mus musculus) (UniProt P49582); experiment: Functional activity is expressed as percent efficacy for alpha-7 nAChR.
Sequence of Neuronal acetylcholine receptor subunit alpha-7 (Mus musculus) (P49582 whole entry): as above

[5] = target: T1, Acetylcholine receptor; alpha1/beta1/delta/gamma; experiment: In vitro Binding affinity towards alpha-1-beta-1-gamma-delta nAChR was determined; format: protein-complex assay
[6] = target: Neuronal acetylcholine receptor; alpha4/beta2 (Homo sapiens, UniProt P17787+P43681); experiment: In vitro Binding affinity towards Nicotinic acetylcholine receptor alpha4-beta2 was determined; format: protein-complex assay
Sequence of Neuronal acetylcholine receptor; alpha4/beta2 (P17787 whole entry): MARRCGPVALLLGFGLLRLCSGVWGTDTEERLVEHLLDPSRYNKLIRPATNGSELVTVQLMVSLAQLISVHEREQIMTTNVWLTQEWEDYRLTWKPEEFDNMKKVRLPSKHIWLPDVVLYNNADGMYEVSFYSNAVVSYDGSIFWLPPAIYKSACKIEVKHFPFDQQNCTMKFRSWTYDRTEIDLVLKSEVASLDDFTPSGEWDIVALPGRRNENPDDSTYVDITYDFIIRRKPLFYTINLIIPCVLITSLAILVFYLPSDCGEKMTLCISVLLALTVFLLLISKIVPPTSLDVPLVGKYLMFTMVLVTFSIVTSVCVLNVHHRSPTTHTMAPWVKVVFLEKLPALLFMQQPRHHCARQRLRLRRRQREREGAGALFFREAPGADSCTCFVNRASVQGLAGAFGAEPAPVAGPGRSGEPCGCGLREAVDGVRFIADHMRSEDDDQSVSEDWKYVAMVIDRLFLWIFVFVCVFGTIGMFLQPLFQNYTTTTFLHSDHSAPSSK
Sequence of Neuronal acetylcholine receptor; alpha4/beta2 (P43681 whole entry): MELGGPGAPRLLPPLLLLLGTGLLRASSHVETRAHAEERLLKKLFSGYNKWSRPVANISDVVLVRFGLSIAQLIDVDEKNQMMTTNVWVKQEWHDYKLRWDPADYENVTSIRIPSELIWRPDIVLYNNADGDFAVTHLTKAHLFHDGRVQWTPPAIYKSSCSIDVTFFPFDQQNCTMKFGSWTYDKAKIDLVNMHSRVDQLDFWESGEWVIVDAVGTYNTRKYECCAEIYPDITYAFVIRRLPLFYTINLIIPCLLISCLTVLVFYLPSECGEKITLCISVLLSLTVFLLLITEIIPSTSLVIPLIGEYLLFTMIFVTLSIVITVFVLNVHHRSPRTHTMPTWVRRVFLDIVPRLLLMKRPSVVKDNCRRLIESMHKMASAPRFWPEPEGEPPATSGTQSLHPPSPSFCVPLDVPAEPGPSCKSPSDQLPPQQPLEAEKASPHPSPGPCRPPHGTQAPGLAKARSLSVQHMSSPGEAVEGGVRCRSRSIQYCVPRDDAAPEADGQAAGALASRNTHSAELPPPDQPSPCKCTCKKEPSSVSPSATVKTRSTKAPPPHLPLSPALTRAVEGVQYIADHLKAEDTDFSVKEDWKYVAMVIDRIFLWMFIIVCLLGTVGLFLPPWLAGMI

[7] = target: Neuronal acetylcholine receptor subunit alpha-7 (Homo sapiens, UniProt P36544); experiment: Effective concentration that causes inhibition of alpha-7 nAChR, was determined. Values are expressed as EC50 +/- SEM.; format: functional
Sequence of Neuronal acetylcholine receptor subunit alpha-7 (Homo sapiens, UniProt P36544) (P36544 whole entry): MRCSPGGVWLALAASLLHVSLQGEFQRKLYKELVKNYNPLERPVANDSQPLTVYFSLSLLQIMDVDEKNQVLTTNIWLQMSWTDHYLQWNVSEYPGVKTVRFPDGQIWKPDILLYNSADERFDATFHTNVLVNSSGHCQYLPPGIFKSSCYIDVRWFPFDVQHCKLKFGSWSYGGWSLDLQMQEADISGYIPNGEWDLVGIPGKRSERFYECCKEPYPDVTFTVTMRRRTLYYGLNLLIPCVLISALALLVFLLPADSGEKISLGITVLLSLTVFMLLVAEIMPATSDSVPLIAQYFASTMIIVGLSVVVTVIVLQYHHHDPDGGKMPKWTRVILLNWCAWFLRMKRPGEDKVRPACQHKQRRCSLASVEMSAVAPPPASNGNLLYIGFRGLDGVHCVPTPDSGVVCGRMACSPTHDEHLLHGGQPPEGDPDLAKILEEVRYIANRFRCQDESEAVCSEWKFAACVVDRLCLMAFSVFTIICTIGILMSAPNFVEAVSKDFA

T1 sequence (P02708 whole entry): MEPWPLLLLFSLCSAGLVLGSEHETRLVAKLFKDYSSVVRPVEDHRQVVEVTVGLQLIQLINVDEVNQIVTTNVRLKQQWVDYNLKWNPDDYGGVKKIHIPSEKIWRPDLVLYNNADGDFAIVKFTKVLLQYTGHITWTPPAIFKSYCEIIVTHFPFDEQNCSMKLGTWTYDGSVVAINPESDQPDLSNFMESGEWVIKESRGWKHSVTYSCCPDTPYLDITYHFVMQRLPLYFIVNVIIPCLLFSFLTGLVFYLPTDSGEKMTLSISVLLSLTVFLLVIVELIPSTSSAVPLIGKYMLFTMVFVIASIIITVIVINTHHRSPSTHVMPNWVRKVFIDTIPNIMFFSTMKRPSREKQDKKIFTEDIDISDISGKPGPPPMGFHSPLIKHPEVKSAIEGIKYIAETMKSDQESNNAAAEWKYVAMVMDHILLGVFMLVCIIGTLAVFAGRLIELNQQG
T1 sequence (P07510 whole entry): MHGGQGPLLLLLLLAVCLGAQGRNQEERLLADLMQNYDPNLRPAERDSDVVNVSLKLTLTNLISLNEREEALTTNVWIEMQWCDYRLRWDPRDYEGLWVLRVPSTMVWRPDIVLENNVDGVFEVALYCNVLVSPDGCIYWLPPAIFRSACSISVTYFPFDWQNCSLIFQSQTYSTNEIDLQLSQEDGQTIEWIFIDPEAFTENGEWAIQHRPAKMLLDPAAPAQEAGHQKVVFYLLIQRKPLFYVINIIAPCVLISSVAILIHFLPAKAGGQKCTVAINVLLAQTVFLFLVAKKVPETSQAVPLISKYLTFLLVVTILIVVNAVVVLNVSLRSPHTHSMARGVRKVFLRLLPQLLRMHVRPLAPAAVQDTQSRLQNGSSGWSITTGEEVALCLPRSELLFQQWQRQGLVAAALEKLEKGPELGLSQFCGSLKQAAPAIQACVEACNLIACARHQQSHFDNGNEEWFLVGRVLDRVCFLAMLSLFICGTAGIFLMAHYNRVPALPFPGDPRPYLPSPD
T1 sequence (P11230 whole entry): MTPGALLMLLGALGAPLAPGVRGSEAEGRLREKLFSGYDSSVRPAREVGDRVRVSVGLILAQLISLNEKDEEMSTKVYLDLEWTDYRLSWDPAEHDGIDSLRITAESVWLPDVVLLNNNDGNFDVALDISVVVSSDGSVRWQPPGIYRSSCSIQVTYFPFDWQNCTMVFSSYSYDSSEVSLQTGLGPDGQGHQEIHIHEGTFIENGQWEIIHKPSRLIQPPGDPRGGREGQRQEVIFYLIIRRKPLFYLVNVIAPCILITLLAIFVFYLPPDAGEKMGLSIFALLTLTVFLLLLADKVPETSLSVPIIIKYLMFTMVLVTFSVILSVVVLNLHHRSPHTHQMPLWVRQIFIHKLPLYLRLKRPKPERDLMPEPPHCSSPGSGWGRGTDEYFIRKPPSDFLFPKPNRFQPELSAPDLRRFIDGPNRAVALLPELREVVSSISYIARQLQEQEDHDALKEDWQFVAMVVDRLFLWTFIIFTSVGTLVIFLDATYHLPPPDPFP
T1 sequence (Q07001 whole entry): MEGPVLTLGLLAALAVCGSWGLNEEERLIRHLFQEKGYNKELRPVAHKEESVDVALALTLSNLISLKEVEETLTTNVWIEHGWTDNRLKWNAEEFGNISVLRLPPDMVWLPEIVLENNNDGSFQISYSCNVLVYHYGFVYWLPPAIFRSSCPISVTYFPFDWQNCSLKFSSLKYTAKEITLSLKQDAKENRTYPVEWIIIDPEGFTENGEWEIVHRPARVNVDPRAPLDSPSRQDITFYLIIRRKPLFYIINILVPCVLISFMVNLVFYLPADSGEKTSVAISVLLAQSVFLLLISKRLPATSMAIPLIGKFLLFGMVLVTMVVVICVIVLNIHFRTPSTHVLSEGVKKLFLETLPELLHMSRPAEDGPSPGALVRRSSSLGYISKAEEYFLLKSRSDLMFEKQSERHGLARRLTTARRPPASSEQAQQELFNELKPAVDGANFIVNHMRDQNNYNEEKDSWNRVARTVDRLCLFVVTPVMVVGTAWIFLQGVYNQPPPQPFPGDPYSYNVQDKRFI

SMILES	pKi [1]	pKi [2]	pKi [3]	Efficacy [4] [%]	pKi [5]	pKi [6]	pEC50 [7]
CN1CCC[C@H]1c1cccnc1 [NICOTINE]	4.15	5.26	6.32	53	–	–	–
CN1[C@@H]2CC[C@H]1C[C@@H](OC(=O)c1c[nH]c3ccccc13)C2 [TROPISETRON]	–	–	–	–	4.57	4.26	–
O=C(OC1CN2CCC1CC2)n1ccc2ccccc21 (configuration not stated)	8.00	–	8.06	17	–	4.85	5.32
C[N+]1(C)C2CCC1CC(OC(=O)c1c[nH]c3ccccc13)C2 (configuration not stated)	8.14	–	8.19	13	5.52	5.11	6.55
CC(=O)OCC[N+](C)(C)C	–	–	–	100	–	–	–
Cc1nccn1CC1CCc2c(c3ccccc3n2C)C1=O (configuration not stated) [ONDANSETRON]	–	–	< 5.52	–	–	4.34	–
CN1C2CCCC1CC(NC(=O)c1nn(C)c3ccccc13)C2 (configuration not stated) [GRANISETRON]	–	–	< 5.00	–	–	4.42	–
